Among the data in ChEMBL document CHEMBL1201862, “PubChem BioAssay data set” (2004) are IC50, EC50 and AC50 values, retold here.

Structures are written as SMILES. Where “and” joins values, the source holds several entries; their conditions need not be identical. Equal entries are not always repeated. Calls of active or inactive are those of the source. Bounds are passed on as bounds.

The target of test [1] is Intestinal-type alkaline phosphatase (Mus musculus, UniProt P24822). Description: PubChem AID 488785. It is filed as functional.
In test [2] the target is Intestinal-type alkaline phosphatase (Homo sapiens, UniProt P09923). Put plainly: inhibition of human intestinal alkaline phosphatase – biochemical, dose response (AID 488876). Type of test: functional.
Test [3] deals with T1, Alkaline phosphatase, tissue-nonspecific isozyme (Homo sapiens, UniProt P05186).
T1 sequence (P05186 whole entry): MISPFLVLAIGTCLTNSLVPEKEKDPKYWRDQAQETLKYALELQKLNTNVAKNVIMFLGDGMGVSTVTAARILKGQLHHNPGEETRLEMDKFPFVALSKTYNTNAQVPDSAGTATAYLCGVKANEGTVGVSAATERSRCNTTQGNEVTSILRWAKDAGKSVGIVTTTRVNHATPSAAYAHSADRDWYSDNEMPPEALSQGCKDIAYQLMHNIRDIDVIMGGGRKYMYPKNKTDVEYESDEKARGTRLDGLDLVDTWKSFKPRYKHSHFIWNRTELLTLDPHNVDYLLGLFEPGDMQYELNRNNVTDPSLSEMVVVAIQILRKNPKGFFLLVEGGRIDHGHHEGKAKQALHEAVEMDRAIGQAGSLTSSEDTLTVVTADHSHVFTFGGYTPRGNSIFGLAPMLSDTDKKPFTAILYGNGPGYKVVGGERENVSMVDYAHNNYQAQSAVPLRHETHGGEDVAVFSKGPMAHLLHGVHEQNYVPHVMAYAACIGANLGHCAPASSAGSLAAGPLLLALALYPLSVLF
Put plainly: TNAP enzyme inhibition by screening hits, dose response, selectivity assay for mouse IAP inhibitor project, biochemical, human TNAP, uHTS hits (AID 488906). Type of test: functional.

Test [4] is described as follows: fluconazole-exposed Candida albicans growth modulators – fluorescence, retest, confirmation (AID 2467). It is filed as functional, cell-based.
Test [5] addresses Sphingosine 1-phosphate receptor 4 (Homo sapiens, UniProt O95977). Description: Fluorescence dose response cell-based high throughput screening assay for agonists of the Sphingosine 1-Phosphate Receptor 4 (S1P4). [Related pubchem assays: 1509 (Primary screen.), 1523 (Confirmation screen in triplicates.)]. Type of test: functional.
For test [6], the target named is Sphingosine 1-phosphate receptor 1 (Homo sapiens, UniProt P21453). Description: Fluorescence-based counterscreen assay for S1P4 agonists: Cell-based dose response high throughput screening assay to identify agonists of the Sphingosine 1-Phosphate Receptor 1 (S1P1). [Related pubchem assays (depositor defined):AID1509, AID1523, AID1801, AID463107, AID463118, AID463119, AID463122, AID463123, AID463129, AID463225, AID504400, AID504460]. It is filed as functional. On the technique in general: The purpose of a counterscreen is to sort out artefacts and off-target activity.
Sphingosine 1-phosphate receptor 1, sequence (P21453 whole entry): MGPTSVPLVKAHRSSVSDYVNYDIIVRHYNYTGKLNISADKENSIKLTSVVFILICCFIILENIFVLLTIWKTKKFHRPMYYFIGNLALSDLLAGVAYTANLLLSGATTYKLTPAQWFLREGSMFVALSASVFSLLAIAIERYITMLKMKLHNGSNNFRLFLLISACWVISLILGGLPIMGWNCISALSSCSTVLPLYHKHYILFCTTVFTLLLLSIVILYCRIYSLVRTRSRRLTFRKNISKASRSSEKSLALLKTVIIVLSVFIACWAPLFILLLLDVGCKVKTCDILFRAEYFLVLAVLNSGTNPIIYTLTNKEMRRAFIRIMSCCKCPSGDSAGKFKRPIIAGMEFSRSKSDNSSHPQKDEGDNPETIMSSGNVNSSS

The target of test [7] is Sphingosine 1-phosphate receptor 2 (Homo sapiens, UniProt O95136). Description: Dose Response Cell Based Assay for Agonists of the S1P2 Receptor. [Related pubchem assays: 729, 736, 843 ]. Type of test: functional.
Test [8] is described as follows: NIH-3T3 fibroblast cytotoxicity, dose response, cytotoxicity control, cell-based, fluorescence, Alamar Blue, secondary assay (AID 2327).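 Also: NIH-3T3 mouse fibroblasts cultured with fluconazole at 8 µg/mL.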 Type of test: functional. (Alamar Blue is a resazurin reagent that responds to reducing activity.)
The target of test [9] is Peroxisome proliferator-activated receptor gamma/Nuclear receptor coactivator 1 (Homo sapiens, UniProt P37231). Description: TR-FRET dose response biochemical High Throughput Screening assay for agonists of the steroid receptor coactivator 1 (SRC-1) recruitment by the peroxisome proliferator-activated receptor gamma (PPAR gamma): non-selective agonists. [Related pubchem assays (depositor defined):AID1300, AID1808, AID504735, AID631]. Type of test: protein assay. For orientation: TR-FRET usually uses a lanthanide donor and a delayed reading to cut background.

Test [10] has as its target Peroxisome proliferator-activated receptor gamma/Nuclear receptor coactivator 3 (Homo sapiens, UniProt P37231). Description: TR-FRET dose response biochemical High Throughput Screening assay for agonists of the steroid receptor coactivator 3 (SRC-3) recruitment by the peroxisome proliferator-activated receptor gamma (PPAR gamma): non-selective agonists. [Related pubchem assays: 1301 (Confirmation screen.), 1048 (Primary screen.)]. Type of test: functional.

Test [11] addresses Cytochrome P450 3A4 (Homo sapiens, UniProt P08684).
The target in test [12] is Peroxisome proliferator-activated receptor gamma/Nuclear receptor coactivator 2 (Homo sapiens, UniProt P37231). Put plainly: TR-FRET dose response biochemical High Throughput Screening assay for agonists of the steroid receptor coactivator 2 (SRC-2) recruitment by the peroxisome proliferator-activated receptor gamma (PPAR gamma): non-selective agonists. [Related pubchem assays: 1297, 1032 ]. Type of test: functional.
Peroxisome proliferator-activated receptor gamma/Nuclear receptor coactivator 2, sequence (P37231 whole entry): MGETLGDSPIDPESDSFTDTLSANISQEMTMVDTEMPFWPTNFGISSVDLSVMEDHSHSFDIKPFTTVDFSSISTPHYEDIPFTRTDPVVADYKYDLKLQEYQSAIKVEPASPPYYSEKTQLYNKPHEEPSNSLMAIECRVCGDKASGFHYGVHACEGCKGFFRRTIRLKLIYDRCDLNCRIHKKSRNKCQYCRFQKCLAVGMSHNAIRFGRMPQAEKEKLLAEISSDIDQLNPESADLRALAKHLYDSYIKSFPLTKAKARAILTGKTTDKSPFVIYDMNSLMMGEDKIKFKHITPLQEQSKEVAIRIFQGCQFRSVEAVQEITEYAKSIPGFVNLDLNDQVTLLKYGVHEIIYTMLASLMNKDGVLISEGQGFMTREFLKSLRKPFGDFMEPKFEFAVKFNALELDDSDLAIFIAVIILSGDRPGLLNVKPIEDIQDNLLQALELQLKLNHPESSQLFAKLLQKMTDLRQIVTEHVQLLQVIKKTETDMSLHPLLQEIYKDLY
Peroxisome proliferator-activated receptor gamma/Nuclear receptor coactivator 2, sequence (Q15596 whole entry, further chain): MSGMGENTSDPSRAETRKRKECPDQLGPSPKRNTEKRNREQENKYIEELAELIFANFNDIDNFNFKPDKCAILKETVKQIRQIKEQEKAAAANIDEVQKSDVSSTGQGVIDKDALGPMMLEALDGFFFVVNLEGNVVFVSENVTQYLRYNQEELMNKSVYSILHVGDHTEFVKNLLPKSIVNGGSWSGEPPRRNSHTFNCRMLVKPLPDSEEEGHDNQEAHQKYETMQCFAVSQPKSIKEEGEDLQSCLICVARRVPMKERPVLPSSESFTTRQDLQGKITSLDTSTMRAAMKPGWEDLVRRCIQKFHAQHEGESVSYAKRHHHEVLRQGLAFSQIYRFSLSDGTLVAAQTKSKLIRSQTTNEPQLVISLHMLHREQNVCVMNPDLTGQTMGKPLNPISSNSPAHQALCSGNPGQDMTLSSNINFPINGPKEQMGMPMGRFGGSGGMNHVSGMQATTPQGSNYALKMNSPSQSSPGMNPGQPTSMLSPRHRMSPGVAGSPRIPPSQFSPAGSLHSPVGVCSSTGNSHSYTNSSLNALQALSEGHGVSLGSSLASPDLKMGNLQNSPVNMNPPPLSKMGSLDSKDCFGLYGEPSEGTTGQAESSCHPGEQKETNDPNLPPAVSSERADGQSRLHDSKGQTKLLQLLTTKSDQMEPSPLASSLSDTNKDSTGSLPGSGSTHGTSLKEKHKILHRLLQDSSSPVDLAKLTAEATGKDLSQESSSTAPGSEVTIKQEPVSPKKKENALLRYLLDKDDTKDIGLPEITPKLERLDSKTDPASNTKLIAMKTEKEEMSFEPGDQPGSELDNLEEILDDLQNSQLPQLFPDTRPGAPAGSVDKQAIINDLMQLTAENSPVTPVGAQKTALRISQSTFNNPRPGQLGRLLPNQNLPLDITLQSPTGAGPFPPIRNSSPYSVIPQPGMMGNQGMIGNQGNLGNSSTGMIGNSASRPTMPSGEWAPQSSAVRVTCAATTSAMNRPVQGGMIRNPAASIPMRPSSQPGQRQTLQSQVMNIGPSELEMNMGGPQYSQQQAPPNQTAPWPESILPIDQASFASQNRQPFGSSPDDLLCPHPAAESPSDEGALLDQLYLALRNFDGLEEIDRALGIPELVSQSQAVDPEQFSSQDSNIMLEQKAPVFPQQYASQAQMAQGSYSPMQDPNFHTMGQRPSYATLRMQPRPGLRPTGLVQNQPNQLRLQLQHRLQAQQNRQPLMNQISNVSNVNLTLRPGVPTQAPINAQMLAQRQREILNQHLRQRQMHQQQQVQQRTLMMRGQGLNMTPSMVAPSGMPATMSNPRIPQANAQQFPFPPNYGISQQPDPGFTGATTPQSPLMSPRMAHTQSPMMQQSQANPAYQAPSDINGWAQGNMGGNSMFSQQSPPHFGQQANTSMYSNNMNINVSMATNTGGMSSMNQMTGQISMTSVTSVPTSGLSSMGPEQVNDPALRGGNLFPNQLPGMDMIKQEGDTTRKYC

Test [13] concerns the target T2, E3 ubiquitin-protein ligase XIAP (Homo sapiens, UniProt P98170). Description: SAR analysis of Antagonists of IAP-family anti-apoptotic proteins. [Related pubchem assays (depositor defined):AID1018, AID1449, AID1513, AID1514, AID1638].
The target in test [14] is T2, E3 ubiquitin-protein ligase XIAP. Put plainly: SAR analysis of Antagonists of XIAP-Bir3 domain of IAP-family anti-apoptotic proteins. [Related pubchem assays (depositor defined):AID1018, AID1449, AID1513, AID1514, AID1638].
For test [15] the target is unchanged. Description: Counter Screen using XIAP-Bir3 for Chemical Antagonists of Bir1/2 domains of IAP-family anti-apoptotic proteins. [Related pubchem assays (depositor defined):AID1018, AID1449, AID1514, AID1638, AID1749, AID1750, AID488957, AID488963].
Test [16] relates to INS1. Put plainly: INS-1E survival protection against cytokine death – cell-based, luminescence, retest, dose response (AID 449756).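 Also: cell death triggered by IL-1 beta plus TNF-alpha plus IFN-gamma mixture; protective hits raise ATP signal compared with cytokine alone wells.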 Type of test: functional. The settings on record: Rattus norvegicus.
Test [17] concerns the target Type-1 angiotensin II receptor (Homo sapiens, UniProt P30556). Put plainly: agonist activity at AGTR1 – cell-based, uHTS hits, selectivity assay for APJ receptor agonist project, dose response (AID 488865).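 Also: beta-arrestin recruitment to AT1 measured by enzyme fragment complementation luminescence.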 It is filed as functional.
In test [18] the target is Nonstructural protein 1 (Influenza A virus, UniProt Q194T2). Type of test: functional, Influenza A virus (A/California/07/2009(H1N1)).
Nonstructural protein 1, sequence (Q194T2 whole entry): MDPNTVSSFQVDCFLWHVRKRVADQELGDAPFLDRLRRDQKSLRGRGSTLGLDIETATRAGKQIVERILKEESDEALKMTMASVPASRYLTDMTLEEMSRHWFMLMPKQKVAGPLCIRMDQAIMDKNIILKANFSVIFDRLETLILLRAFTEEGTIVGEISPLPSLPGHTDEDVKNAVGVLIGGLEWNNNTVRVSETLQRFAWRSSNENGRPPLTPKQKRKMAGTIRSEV
Test [19] deals with T3, Ubiquitin-conjugating enzyme E2 N (Homo sapiens, UniProt P61088).
T3 sequence (P61088 whole entry): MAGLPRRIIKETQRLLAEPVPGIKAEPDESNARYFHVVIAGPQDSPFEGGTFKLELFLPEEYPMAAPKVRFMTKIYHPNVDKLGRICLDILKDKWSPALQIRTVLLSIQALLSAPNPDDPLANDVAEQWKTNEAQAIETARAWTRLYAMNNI
It is filed as functional.

In test [20] the target is 5-hydroxytryptamine receptor 5A (Homo sapiens, UniProt P47898). Put plainly: Counterscreen for agonists of OPRM1-OPRD1 heterodimerization: luminescence-based cell-based high throughput dose response assay to identify agonists of 5-hydroxytryptamine (serotonin) 5A receptor (HTR5A). [Related pubchem assays (depositor defined):AID504326, AID504355, AID504692, AID504904, AID504905]. It is filed as functional.

Test [21] has as its target Bcl-2-related protein A1 (Mus musculus, UniProt Q07440). It is filed as functional.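 Also: confirmatory dose–response counterscreen on Bfl-1, used to check hits from a UBC13 polyubiquitin inhibitor campaign.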
The target of test [22] is T3, Ubiquitin-conjugating enzyme E2 N. Type of test: functional. This is another data set of the same source.
The target in test [23] is Mu-type opioid receptor (Homo sapiens, UniProt P35372). Description: Counterscreen for agonists of heterodimerization of the mu 1 (OPRM1) and delta 1 (OPRD1) opioid receptors: Luminescence-based cell-based high throughput dose response assay to identify agonists of OPRM1 homodimerization. Type of test: functional.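 Also: U2OS cells expressing OPRM1 and beta-arrestin as split beta-galactosidase partners.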
Test [24] addresses T4, Short transient receptor potential channel 4 (Mus musculus, UniProt Q9QUQ5).
T4 sequence (Q9QUQ5 whole entry): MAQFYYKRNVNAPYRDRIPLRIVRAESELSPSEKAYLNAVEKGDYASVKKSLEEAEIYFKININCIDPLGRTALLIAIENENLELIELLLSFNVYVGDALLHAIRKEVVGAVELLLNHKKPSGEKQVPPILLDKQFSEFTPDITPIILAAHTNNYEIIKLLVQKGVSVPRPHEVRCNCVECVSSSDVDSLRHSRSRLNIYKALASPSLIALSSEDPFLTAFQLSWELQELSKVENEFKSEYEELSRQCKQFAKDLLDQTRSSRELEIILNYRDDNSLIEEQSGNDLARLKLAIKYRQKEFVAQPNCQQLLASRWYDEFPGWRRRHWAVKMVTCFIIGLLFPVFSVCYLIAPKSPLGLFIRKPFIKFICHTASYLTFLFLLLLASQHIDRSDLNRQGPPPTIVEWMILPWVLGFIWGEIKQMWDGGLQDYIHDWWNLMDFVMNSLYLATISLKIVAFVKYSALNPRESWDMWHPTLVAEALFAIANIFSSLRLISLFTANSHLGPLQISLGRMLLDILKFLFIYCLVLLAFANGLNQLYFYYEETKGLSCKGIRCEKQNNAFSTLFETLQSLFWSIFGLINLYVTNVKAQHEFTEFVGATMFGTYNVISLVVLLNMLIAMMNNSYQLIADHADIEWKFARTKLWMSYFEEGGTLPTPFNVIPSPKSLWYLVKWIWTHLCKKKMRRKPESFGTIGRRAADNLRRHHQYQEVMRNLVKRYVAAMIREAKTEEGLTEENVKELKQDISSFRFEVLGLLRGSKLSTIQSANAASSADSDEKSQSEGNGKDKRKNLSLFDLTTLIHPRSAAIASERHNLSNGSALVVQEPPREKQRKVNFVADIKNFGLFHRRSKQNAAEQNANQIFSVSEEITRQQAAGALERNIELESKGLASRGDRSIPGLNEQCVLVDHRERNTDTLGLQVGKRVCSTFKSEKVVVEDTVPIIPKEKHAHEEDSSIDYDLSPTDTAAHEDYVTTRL
Description: calcium entry via TRPC4 opening agents – cell-based, HEK293 TRPC4/mu-opioid, Fluo-4 calcium, dose response (AID 434937). It is filed as functional.

The target in test [25] is Delta-type opioid receptor (Homo sapiens, UniProt P41143). Put plainly: Counterscreen for agonists of heterodimerization of the mu 1 (OPRM1) and delta 1 (OPRD1) opioid receptors: Luminescence-based cell-based high throughput dose response assay to identify agonists of OPRD1 homodimerization. [Related pubchem assays (depositor defined):AID504326, AID504355, AID504692, AID504904, AID504905]. It is filed as functional.

Test [26] has as its system HEK293. Description: cells. The settings on record: Homo sapiens.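 Also: cells exposed to compound for 14 hours overnight before viability readout.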
Test [27] addresses Tumor necrosis factor (Homo sapiens, UniProt P01375). Description: analog potency on TNFa NF-kB signaling – cell-based, revised, SAR follow-up (AID 2337). Type of test: functional.
The target of test [28] is Nucleotide-binding oligomerization domain-containing protein 1 (Homo sapiens, UniProt Q9Y239). Put plainly: blockers of NOD1 pathway activity – revised, SAR follow-up (AID 2333). Type of test: functional.
Nucleotide-binding oligomerization domain-containing protein 1, sequence (Q9Y239 whole entry, the tested form may be a part): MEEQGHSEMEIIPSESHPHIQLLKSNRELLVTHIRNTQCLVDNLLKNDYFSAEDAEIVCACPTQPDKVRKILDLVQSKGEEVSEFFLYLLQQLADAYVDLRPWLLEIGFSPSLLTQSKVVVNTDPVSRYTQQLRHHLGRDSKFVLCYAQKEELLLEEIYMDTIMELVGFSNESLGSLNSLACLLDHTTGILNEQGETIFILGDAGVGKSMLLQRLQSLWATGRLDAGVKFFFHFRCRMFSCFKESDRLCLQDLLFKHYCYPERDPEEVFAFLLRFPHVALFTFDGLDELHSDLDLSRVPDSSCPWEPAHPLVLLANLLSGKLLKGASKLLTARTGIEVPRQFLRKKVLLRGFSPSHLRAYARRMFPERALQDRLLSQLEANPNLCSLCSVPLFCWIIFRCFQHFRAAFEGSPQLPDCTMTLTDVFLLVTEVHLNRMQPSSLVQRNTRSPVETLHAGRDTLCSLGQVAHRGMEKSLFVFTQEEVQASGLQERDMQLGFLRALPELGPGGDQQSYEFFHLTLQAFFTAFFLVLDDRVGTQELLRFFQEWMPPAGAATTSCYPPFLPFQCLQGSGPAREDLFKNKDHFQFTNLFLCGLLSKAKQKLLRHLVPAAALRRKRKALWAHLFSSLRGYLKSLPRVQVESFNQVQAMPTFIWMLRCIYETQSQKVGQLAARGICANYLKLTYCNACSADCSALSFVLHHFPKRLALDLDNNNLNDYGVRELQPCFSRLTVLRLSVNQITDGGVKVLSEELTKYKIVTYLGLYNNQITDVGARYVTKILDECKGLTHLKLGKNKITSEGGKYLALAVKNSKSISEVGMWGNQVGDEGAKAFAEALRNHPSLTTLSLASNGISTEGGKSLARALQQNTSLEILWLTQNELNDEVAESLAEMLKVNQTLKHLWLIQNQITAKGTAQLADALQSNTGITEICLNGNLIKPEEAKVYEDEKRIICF

T2 sequence (P98170 whole entry, the tested form may be a part): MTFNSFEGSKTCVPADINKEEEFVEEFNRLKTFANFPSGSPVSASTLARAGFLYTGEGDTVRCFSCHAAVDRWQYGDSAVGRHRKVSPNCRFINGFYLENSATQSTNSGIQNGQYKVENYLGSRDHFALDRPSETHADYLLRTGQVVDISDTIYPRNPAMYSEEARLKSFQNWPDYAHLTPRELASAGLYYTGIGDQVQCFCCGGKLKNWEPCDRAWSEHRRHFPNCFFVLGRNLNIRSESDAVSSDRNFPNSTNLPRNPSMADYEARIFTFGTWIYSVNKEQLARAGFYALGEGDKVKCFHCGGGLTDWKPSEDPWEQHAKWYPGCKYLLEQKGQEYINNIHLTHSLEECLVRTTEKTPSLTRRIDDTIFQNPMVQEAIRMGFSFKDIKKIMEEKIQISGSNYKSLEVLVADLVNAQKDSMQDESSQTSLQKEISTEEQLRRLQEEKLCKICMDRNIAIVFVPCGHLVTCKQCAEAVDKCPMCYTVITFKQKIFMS
Tumor necrosis factor, sequence (P01375 whole entry, the tested form may be a part): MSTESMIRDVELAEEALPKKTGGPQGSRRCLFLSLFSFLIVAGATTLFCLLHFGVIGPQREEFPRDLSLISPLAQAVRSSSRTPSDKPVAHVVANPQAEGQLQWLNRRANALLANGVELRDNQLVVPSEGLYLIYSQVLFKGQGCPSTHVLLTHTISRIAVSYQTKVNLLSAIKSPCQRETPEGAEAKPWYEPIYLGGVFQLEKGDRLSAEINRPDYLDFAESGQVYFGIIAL
Type-1 angiotensin II receptor, sequence (P30556 whole entry, the tested form may be a part): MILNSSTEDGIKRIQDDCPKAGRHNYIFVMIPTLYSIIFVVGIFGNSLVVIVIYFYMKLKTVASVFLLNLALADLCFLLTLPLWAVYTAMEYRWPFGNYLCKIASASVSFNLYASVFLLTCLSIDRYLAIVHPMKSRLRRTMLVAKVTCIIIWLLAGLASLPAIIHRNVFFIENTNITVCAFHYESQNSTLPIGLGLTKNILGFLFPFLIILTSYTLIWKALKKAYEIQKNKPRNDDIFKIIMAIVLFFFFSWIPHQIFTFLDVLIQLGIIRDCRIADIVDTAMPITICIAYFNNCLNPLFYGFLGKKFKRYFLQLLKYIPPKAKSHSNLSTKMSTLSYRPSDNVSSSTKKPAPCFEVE
Sphingosine 1-phosphate receptor 4, sequence (O95977 whole entry): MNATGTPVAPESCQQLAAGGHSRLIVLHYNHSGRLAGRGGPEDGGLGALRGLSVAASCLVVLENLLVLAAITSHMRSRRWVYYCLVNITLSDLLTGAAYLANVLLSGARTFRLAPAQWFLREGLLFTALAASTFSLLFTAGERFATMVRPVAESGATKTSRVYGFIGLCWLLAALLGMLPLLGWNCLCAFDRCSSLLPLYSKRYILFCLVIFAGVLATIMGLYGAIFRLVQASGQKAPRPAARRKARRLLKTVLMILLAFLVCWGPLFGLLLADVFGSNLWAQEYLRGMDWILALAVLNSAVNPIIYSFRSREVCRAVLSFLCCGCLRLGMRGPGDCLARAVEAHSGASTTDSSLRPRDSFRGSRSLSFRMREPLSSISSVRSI

The IC50 is the concentration that inhibits the measured activity by half. As for `COC(=O)c1ccc(NS(=O)(=O)c2ccc3[nH]c(=O)oc3c2)cc1`, the IC50 is 2.6 µM (active) in [1], > 100 µM (inactive) in test [2] and > 100 µM (inactive) in test [3].
For orientation: EC50 means the concentration at which the effect is half-maximal. In the case of `Cc1ccccc1-n1c(=O)c(C#N)cc2c(=O)n3ccccc3nc21`, the EC50 was > 38 µM (not active) in test [4]; 2.58 µM (active) in test [5]; 7.88 µM (active) in [6]; 7.45 µM (active) in test [7]; > 160 µM (inactive) in test [8].
One may read the AC50 as the concentration at which the activity in the assay is half-maximal. Consider `CCOC(=O)CSc1cc(=O)n(C)c2cc(Cl)ccc12`, for which the EC50 in test [9] was > 79.4 µM (inactive); in [10], > 79.4 µM (not active); in test [12], > 79.4 µM (not active). Besides, in [11], the AC50 is 22.4 µM (inconclusive).
Regarding `CC[C@H](NC(=O)[C@H](C)NC)C(=O)N1CCC[C@H]1C(=O)NC1CCCc2ccccc21` (stereo partly drawn), the IC50 in test [13] is 9.7 µM (active) and 13.7 µM (active); in [14], 530 nM (active) and 980 nM (active).
For `CC(C)(C)c1ccc(C(CC(=O)O)NC(=O)Cc2ccc(F)cc2)cc1` (stereo not drawn), the IC50 in [15] was > 20 µM (inactive).
`Cc1ccc2nc(N(CCCN(C)C)C(=O)c3ccc(S(=O)(=O)N4CCc5ccccc5C4)cc3)sc2c1`: the AC50 in [16] was 6.05 µM (active). For the same compound, the EC50 is 57.8 µM (inactive) in test [17]; > 92.5 µM (inactive) in [20]; 10.2 µM (inactive) in test [23]; 3.35 µM (active) in test [24]; > 92.5 µM (inactive) in test [25]. Moreover, the IC50 in test [18] was > 50 µM (active); in test [19], 11 µM (active); in test [21] it was > 20 µM (inactive); in test [22] it was 7.23 µM (active).
Consider `COC(=O)CC1=NN(c2nc3ccccc3s2)C(=O)/C1=C(/C)Nc1ccc(OC)cc1`, for which the IC50 in [26] is > 20 µM (inactive); in [27], < 39.1 nM (active) and 4.12 µM (active); in [28] it was 260 nM (active) and 2.38 µM (active).
